Test results: paper PMC6897945, “CytA, a reductase in the cytorhodin biosynthesis pathway, inactivates anthracycline drugs in Streptomyces” (Communications Biology, 2019)
Converted amounts (≈) assume the structure as drawn.

Key:
B. subtilis BS01 = test: Antibacterial activity, broth dilution MIC; assay type: cell-based; conditions: Bacillus subtilis, BS01, read-out: MIC values, BS
Procedure: (§1) The antibacterial activities of compounds 1–13 were assessed using twofold serial dilutions of antibacterial agents in MH broth, according to previously reported standard methods provided by Clinical and Laboratory Standards Institute (CLSI)[30]. These compounds were tested for their antibacterial activities against Bacillus subtilis BS01, Staphyloccocus aureus ATCC 29213, Staphyloccocus aureus 745524, Bacillus thuringiensis BT01, and Enterococcus faecalis ATCC 29212 using a broth dilution method.

B. thuringiensis BT01 = test: Antibacterial activity, broth dilution MIC; assay type: cell-based; conditions: Bacillus thuringiensis, BT01, read-out: MIC values, BT
Procedure: as §1

E. faecalis ATCC 29212 = test: Antibacterial activity, broth dilution MIC; assay type: cell-based; conditions: Enterococcus faecalis, ATCC29212, read-out: MIC values, EF
Procedure: as §1

[1] = tested on: Staphylococcus aureus 745524; test: Antibacterial activity, broth dilution MIC; assay type: cell-based; conditions: Staphylococcus aureus, 745524, read-out: MIC values, SA2
Procedure: as §1

[2] = tested on: Staphylococcus aureus ATCC 29213; test: Antibacterial activity, broth dilution MIC; assay type: cell-based; conditions: Staphylococcus aureus, ATCC29213, read-out: MIC values, SA1
Procedure: as §1

[3] = tested on: MDA-MB-468 human triple negative breast adenocarcinoma cell line; test: Cytotoxic activity, MTT method; assay type: cell-based; conditions: MDA-MB-468, read-out: Cytotoxic activities IC50, MDA-MB-468
Source text: (§2) All data were obtained in triplicate and are presented as means.

[4] = tested on: RKO human colorectal carcinoma cell line; test: Cytotoxic activity, MTT method; assay type: cell-based; conditions: read-out: Cytotoxic activities IC50, RKO
Source text: as §2

[5] = tested on: Streptomyces sp. SCSIO 1666 WT; test: Growth inhibition zone assay; assay type: cell-based; conditions: WT producer, paper discs impregnated with compound, 1 μg
Source text: (§3) We also noted that the ∆cytA mutant strain accumulated small amounts (80~100-fold lower than WT producer) of the immediate biosynthetic precursors of cosmomycins A (3) and B (4). The in vitro antimicrobial activities of compounds 1–13 against a panel of gram-positive bacteria (Table 2) provided some insight into the possible physiological significance of CytA-catalyzed reductions. Furthermore, we had observed that the ΔcytA mutant strain is clearly impaired relative to the WT strain upon addition of 6 or 7 as potential substrates. To evaluate this effect, we probed the sensitivity of Streptomyces sp. SCSIO 1666 to 6 and 7 in an inhibition zone assay (Fig. 3). A clear inhibition zone (16 mm) using the ΔcytA mutant plate was observed when supplemented with 1 μg of 6 or 7. […] That CytA production endows cosmomycin resistance provides strong evidence that the cytA gene directly confers Streptomyces. sp. SCSIO 1666 with the ability to protect itself from the effects by self-resistance to cosmomycins C and D.
(§4) Fig. 3 Sensitivity of Streptomyces sp. SCSIO 1666 toward cosmomycin C (6) and cosmomycin D (7) (1 μg) as determined by growth inhibition zone assays. […] TEXT PRINTED IN THE PICTURE: 6: ΔcytA mutant strain: 16 mm DOUBTS OF THE COPYIST ABOUT THIS PICTURE: 6, ΔcytA mutant strain: the small yellow print reads 16 mm, but it could be 15 or 18 mm / 6: the yellow double arrow marked 16 mm spans the zone around disc 6. The picture prints no measure name, so it may be the inhibition zone diameter or only a scale mark

[6] = tested on: Streptomyces sp. SCSIO 1666 ΔcytA mutant strain; test: Growth inhibition zone assay; assay type: cell-based; conditions: Streptomyces, read-out: inhibition zone
Source text: as §3, §4

CytA = test: In vitro CytA enzymatic activity assay (HPLC analysis); assay type: biochemical, Streptomyces sp. SCSIO 1666; conditions: absence of O2 (anaerobic); 25 μM substrate, 0.5 μM CytA, 20 μM NADH, 37 °C
Source text: To explore the biochemical activity of CytA in vitro, the cytA gene was cloned into the NdeI and EcoRI sites of the pET28a (+) vector and the resulting vector was transformed into E. coli BL21(DE3) using previously described methods. CytA was overexpressed as an N-terminally His6-tagged soluble protein and purified to homogeneity by Ni affinity chromatography (Fig. 2a). […] The activity of CytA was first investigated using substrates 6–9 and ε-rhodomycinone (10) under aerobic conditions. Reactions with CytA were conducted at 37 °C in a volume of 100 μL consisting of 50 mM Tris-Cl (pH 8.0), 25 μM substrate, 0.5 μM CytA, and 20 μM NADH. Reactions with boiled CytA served as controls; all reactions were carried out in parallel to ensure reaction consistency. Reactions were terminated by addition of twofold volume of methanol. As expected, CytA failed, under aerobic conditions to modify any of the substrates 6–10. […] On the heels of this finding we then determined the kinetic parameters of CytA using 6 and 7 as substrates.
Enzymatic reactions were carried out under anaerobic conditions in an anaerobic workstation (Don Whitley Scientific A45) containing a gas phase of N2/H2/CO2 (80:10: 10%, by vol.). ^1H, ^13C, and 2D (COSY, HMQC, HMBC and NOESY) NMR spectra were recorded at 25 °C with an Avance 700 MHz spectrometer instruments (Bruker). […]

Staphylococcus aureus = tested on: Staphylococcus aureus; set-up: method as in earlier work; conditions: 6 vs 3, 7 vs 4; cited from earlier work

SMILES | MIC (B. subtilis BS01) [µg/mL] | MIC (B. thuringiensis BT01) [µg/mL] | MIC (E. faecalis ATCC 29212) [µg/mL] | MIC [1] [µg/mL] | MIC [2] [µg/mL] | IC50 [3] [nM] | IC50 [4] [nM] | growth inhibition near paper discs [5] | zone of inhibition at 1 µg/disc [6] [mm] | conversion by CytA (C-7 reduction/deglycosylation) (CytA) | fold more active against Staphylococcus aureus than reduced congeners 3 and 4, respectively (Staphylococcus aureus) [fold]
CC[C@@]1(O)C[C@H](O[C@H]2C[C@H](N(C)C)[C@H](O[C@H]3C[C@H](O)[C@H](O[C@H]4CC[C@H](O)[C@H](C)O4)[C@H](C)O3)[C@H](C)O2)c2c(O)c3c(c(O)c2[C@H]1O[C@H]1C[C@H](N(C)C)[C@H](O[C@H]2C[C@H](O)[C@H](O[C@H]4CC[C@H](O)[C@H](C)O4)[C@H](C)O2)[C@H](C)O1)C(=O)c1cccc(O)c1C3=O [Compound 7, cosmomycin D] | 0.03 (≈ 0.0252 µM) | 0.125 (≈ 0.105 µM) | 0.002 (≈ 0.00168 µM) | 0.005 (≈ 0.0042 µM) | 0.01 (≈ 0.00841 µM) | 1840 | 99 | little to no growth inhibition | 16 | readily convert | > 100
CC[C@@]1(O)C[C@H](O[C@H]2C[C@H](N(C)C)[C@@H](O[C@H]3C[C@H](O)[C@@H](O[C@H]4CC[C@H](O)[C@H](C)O4)[C@H](C)O3)[C@H](C)O2)c2c(O)c3c(c(O)c2[C@H]1O[C@H]1C[C@H](N(C)C)[C@@H](O[C@H]2CC[C@H](O[C@H]4CC[C@H](O)[C@H](C)O4)[C@H](C)O2)[C@H](C)O1)C(=O)c1cccc(O)c1C3=O [Compound 6, cosmomycin C] | 0.06 (≈ 0.0511 µM) | 0.125 (≈ 0.107 µM) | 0.001 (≈ 0.000852 µM) | 0.005 (≈ 0.00426 µM) | 0.03 (≈ 0.0256 µM) | 500 | 17 | little to no growth inhibition | 16 | readily convert | > 100
